Reference: US20240182453A1, “NOVEL SUBSTITUTED PYRAZINE-CARBOXAMIDE DERIVATIVES” (Boehringer Ingelheim International GmbH, priority 2022, published 2024)

Target: human metabotropic Glutamate 4 receptor (mGluR4) (Homo sapiens (Human), UniProt Q14833)
Test: Assay A: in vitro testing of mGluR4 potency (glutamate-induced cAMP lowering, HTRF cAMP)
Format: cell-based
Conditions: HEK293 cells overexpressing human mGluR4; 10 uM L-glutamic acid, 1 uM forskolin; compounds of the present invention
Summary of the method: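 HEK293 cells overexpressing human mGluR4 treated 30 min at room temperature with compound plus 10 uM L-glutamate, 1 uM forskolin, 0.5 mM IBMX, 0.1% BSA, 1% DMSO. cAMP read by HTRF (665/615 nm ratio), normalized to glutamate (100%) and no-glutamate (0%) controls as percent of control.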

Sequence of human metabotropic Glutamate 4 receptor (mGluR4) (Q14833 33-912): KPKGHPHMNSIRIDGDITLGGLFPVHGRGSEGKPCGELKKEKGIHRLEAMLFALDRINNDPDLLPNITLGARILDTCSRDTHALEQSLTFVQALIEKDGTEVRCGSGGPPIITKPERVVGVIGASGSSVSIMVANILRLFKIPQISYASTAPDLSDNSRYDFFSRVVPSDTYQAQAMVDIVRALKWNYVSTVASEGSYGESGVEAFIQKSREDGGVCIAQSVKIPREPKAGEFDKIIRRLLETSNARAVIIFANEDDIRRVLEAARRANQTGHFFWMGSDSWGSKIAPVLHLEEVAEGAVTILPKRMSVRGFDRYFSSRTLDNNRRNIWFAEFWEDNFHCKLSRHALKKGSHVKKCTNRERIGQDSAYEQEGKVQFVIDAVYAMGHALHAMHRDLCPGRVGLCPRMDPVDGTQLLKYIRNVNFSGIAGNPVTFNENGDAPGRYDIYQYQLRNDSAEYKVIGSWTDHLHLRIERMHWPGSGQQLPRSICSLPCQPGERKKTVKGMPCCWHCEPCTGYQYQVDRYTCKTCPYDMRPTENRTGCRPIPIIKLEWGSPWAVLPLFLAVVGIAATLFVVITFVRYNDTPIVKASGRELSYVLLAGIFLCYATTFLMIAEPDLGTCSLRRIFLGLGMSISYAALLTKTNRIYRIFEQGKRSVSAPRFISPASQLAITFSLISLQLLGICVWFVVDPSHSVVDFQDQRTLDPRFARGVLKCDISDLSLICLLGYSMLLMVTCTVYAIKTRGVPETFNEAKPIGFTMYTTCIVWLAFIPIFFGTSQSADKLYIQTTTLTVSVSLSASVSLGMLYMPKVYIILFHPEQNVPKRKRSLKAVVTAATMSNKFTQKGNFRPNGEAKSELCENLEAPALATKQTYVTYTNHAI

Row | IC50 [nM] | Compound
1 | 9 | COCCn1c([C@@H](NC(=O)c2cnc(C)cn2)[C@H]2CCOC2)nc2cc(OC(F)(F)F)ccc21 [Example 62, N-[(S)-[1-(2-methoxyethyl)-5-(trifluoromethoxy)-1H-1,3-benzodiazol-2-yl][(3R)-oxolan-3-yl]methyl]-5-methylpyrazine-2-carboxamide]
2 | 3 | CO[C@H](C)[C@H](NC(=O)c1cnc(C)cn1)c1nc2c(C)c(Br)ccc2n1C [Example 88, N-[(1R,2R)-1-(5-bromo-1,4-dimethyl-1H-1,3-benzodiazol-2-yl)-2-methoxypropyl]-5-methylpyrazine-2-carboxamide]
3 | 10 | Cc1cnc(C(=O)N[C@@H](CC2CC2)c2nc3cc(Cl)ccc3n2C)cn1 [Example 86, N-[(1S)-1-(5-chloro-1-methyl-1H-1,3-benzodiazol-2-yl)-2-cyclopropylethyl]-5-methylpyrazine-2-carboxamide]
4 | 58 | Cc1cnc(C(=O)N[C@H](c2nc3cc(F)ccc3n2CC(F)F)[C@]2(O)CCCOC2)cn1 [Example 151, N-[(R)-[1-(2,2-difluoroethyl)-5-fluoro-1H-1,3-benzodiazol-2-yl][(3R)-3-hydroxyoxan-3-yl]methyl]-5-methylpyrazine-2-carboxamide]
5 | 5 | COCCn1c([C@@H](NC(=O)c2cnc(C)cn2)C2CC2)nc2cc(F)c(F)cc21 [Example 16, N-[(S)-cyclopropyl[5,6-difluoro-1-(2-methoxyethyl)-1H-1,3-benzodiazol-2-yl]methyl]-5-methylpyrazine-2-carboxamide]
6 | 19 | Cc1cnc(C(=O)N[C@H](c2nc3cc(F)ccc3n2C)C(C)C)cn1 [Example 64, N-[(1S)-1-(5-fluoro-1-methyl-1H-1,3-benzodiazol-2-yl)-2-methylpropyl]-5-methylpyrazine-2-carboxamide]
7 | 8 | Cc1cnc(C(=O)N[C@@H](CC2CC2)c2nc3cc(F)c(F)cc3n2CCOC(F)F)cn1 [Example 128, N-[(1S)-2-cyclopropyl-1-{1-[2-(difluoromethoxy)ethyl]-5,6-difluoro-1H-1,3-benzodiazol-2-y1}ethyl]-5-methylpyrazine-2-carboxamide]
8 | 35 | CCn1c(C(NC(=O)c2cnc(C)cn2)C2CCOC2)nc2ccc(Cl)cc21 (single isomer, unassigned) [Example 164, N-[(6-chloro-1-ethyl-1H-1,3-benzodiazol-2-yl)(oxolan-3-yl)methyl]-5-methylpyrazine-2-carboxamide]
9 | 6 | O=C(N[C@@H](CC1CC1)c1nc2cc(Cl)ccc2n1CCOC(F)F)c1cnc(C(F)F)cn1 [Example 108, N-[(1S)-1-{5-chloro-1-[2-(difluoromethoxy)ethyl]-1H-1,3-benzodiazol-2-yl}-2-cyclopropylethyl]-5-(difluoromethyl)pyrazine-2-carboxamide]
10 | 9 | Cc1cnc(C(=O)N[C@H](c2nc3cc(C(F)(F)F)ccc3n2C)C2(O)CCC2)cn1 [Example 93, N-[(R)-(1-hydroxycyclobutyl)[1-methyl-5-(trifluoromethyl)-1H-1,3-benzodiazol-2-yl]methyl]-5-methylpyrazine-2-carboxamide]
11 | 1 | CO[C@H](C)[C@H](NC(=O)c1cnc(C)cn1)c1nc2cc(OC(F)(F)F)ccc2n1CCOC1CC1 [Example 119, N-[(1R,2R)-1-[1-(2-cyclopropoxyethyl)-5-(trifluoromethoxy)-1H-1,3-benzodiazol-2-yl]-2-methoxypropyl]-5-methylpyrazine-2-carboxamide]
12 | 41 | CCn1c([C@@H](NC(=O)c2cnc(C)cn2)[C@H]2CCOC2)nc2cc(F)ccc21 [Example 144, N-[(S)-(1-ethyl-5-fluoro-1H-1,3-benzodiazol-2-yl)[(3R)-oxolan-3-yl]methyl]-5-methylpyrazine-2-carboxamide]
13 | 14 | CCn1c(C(NC(=O)c2cnc(C)cn2)C2CCOC2)nc2cc(Cl)ccc21 (single isomer, unassigned) [Example 161, N-[(5-chloro-1-ethyl-1H-1,3-benzodiazol-2-yl)(oxolan-3-yl)methyl]-5-methylpyrazine-2-carboxamide]
